From patent US20070128217A1 (priority 2003, published 2007) come the findings set out here.

Assay [1] deals with control sera (pooled serum of ten healthy LUMC hospital workers; commercial negative donor pooled serum from the Dutch bloodbank). The format is binding, human. More on the design: Binding of Control serum LUMC to linear peptides / Binding of Control serum Blood-bank to linear peptides / Binding of Control serum LUMC to looped peptides / Binding of Control Serum Blood-Bank to Looped peptides / Binding of Control serum LUMC to linear peptides of the protein M of SARS-CoV Urbani / Binding of Control serum Blood-bank to linear peptides of the protein M of SARS-CoV Urbani / Binding of Control serum LUMC to looped peptides of the protein M of SARS-CoV Urbani / Binding of Control Serum Blood-Bank to Looped peptides of the protein M of SARS-CoV Urbani: unit not given here.

Assay [2] concerns antibodies in sera from SARS patients (sera 1a, 1b, 2, 6, 37, 62, London, SARS-yellow, SARS-green). The assay is classed as binding, human. More on the design: Binding of serum 6 to linear peptides of protein X1 of SARS-CoV Urbani / Binding of serum 37 to linear peptides of protein X1 of SARS-CoV Urbani / Binding of serum 6 to looped/cyclic peptide (PEPSCAN-ELISA) / Binding of serum 37 to looped/cyclic peptide (PEPSCAN-ELISA) / Binding of serum 37 to looped/cyclic peptides of protein X1 of SARS-CoV Urbani / Binding of serum 6 to linear peptides of protein X2 / Binding of serum 37 to linear peptides of protein X2 / Binding of serum 37 to looped/cyclic peptides of protein X2 of SARS-CoV Urbani / Binding of serum 6 to linear peptides of protein M of SARS-CoV Urbani / Binding of serum 37 to linear peptides of protein M of SARS-CoV Urbani / Binding of serum 6 to looped/cyclic peptides of protein M of SARS-CoV Urbani / Binding of serum 37 to looped/cyclic peptides of protein M of SARS-CoV Urbani / Binding of serum 6 to linear peptides of protein X3 of SARS-CoV Urbani / Binding of serum 37 to linear peptides of protein X3 of SARS-CoV Urbani / Binding of serum 37 to looped/cyclic peptides of protein X3 of SARS-CoV Urbani / Binding of serum 6 to linear peptides of protein X4 of SARS-CoV Urbani / Binding of serum 37 to linear peptides of protein X4 of SARS-CoV Urbani / Binding of serum 37 to looped/cyclic peptides of protein X4 of SARS-CoV Urbani / Binding of serum 6 to linear peptides of protein X5 of SARS-CoV Urbani / Binding of serum 37 to linear peptides of protein X5 of SARS-CoV Urbani / Binding of serum 37 to looped/cyclic peptides of protein X5 of SARS-CoV Urbani / Binding of serum 6 to linear peptides of protein N of SARS-CoV Urbani / Binding of serum 37 to linear peptides of protein N of SARS-CoV Urbani / Binding of serum 6 to linear peptide (PEPSCAN-ELISA) / Binding of serum 1a to looped/cyclic peptides of protein N of SARS-CoV Urbani / Binding of serum 1b to looped/cyclic peptides of protein N of SARS-CoV Urbani / Binding of serum 2 to looped/cyclic peptides of protein N of SARS-CoV Urbani / Binding of serum 6 to looped/cyclic peptides of protein N of SARS-CoV Urbani / Binding of serum 37 to looped/cyclic peptides of protein N of SARS-CoV Urbani / Binding of serum 62 to looped/cyclic peptides of protein N of SARS-CoV Urbani / Binding of serum London to looped/cyclic peptides of protein N of SARS-CoV Urbani / Binding of serum SARS-green to looped/cyclic peptides of protein N of SARS-CoV Urbani: unit not given here.

Assay [3] deals with rabbit serum obtained by immunizing a rabbit with the SARS-CoV strain Frankfurt 1. The format is binding. The arrangement: Binding of a rabbit serum to linear peptides / Binding of a rabbit serum to looped peptides / Rabbit serum linear peptides / Rabbit serum looped peptides / Binding of a rabbit serum to linear peptides of protein N of SARS-CoV Urbani (Rabbit serum linear peptides) / Binding of a rabbit serum to looped/cyclic peptides of protein N of SARS-CoV Urbani (Rabbit serum looped peptides): unit not given here.

Consider GWLVIGVAFLAVFQS, for which, in assay [1], the “Binding of Control Serum Blood-Bank to Looped peptides” value was found to be 0.8, the “Binding of Control serum Blood-bank to linear peptides” value is reported as 0.5, the “Binding of Control serum LUMC to linear peptides” value is listed as 0.6 and the “Binding of Control serum LUMC to looped peptides” value is recorded as 0.7. Further, in assay [2], the “Binding of serum 1a to linear peptides of protein X1 of SARS-CoV Urbani” value is 0.7, the “Binding of serum 1a to looped/cyclic peptide (PEPSCAN-ELISA)” value came to 0.7, the “Binding of serum 1b to linear peptides of protein X1 of SARS-CoV Urbani” value is given as 0.6 and the “Binding of serum 1b to looped/cyclic peptide (PEPSCAN-ELISA)” value is recorded as 0.5. In assay [2], the “Binding of serum 2 to linear peptides of protein X1 of SARS-CoV Urbani” value was determined as 0.5, the “Binding of serum 2 to looped/cyclic peptide (PEPSCAN-ELISA)” value is reported as 0.7, the “Binding of serum 6 to linear peptides of protein X1 of SARS-CoV Urbani” value is on record as 0.5 and the “Binding of serum 6 to looped/cyclic peptide (PEPSCAN-ELISA)” value is 0.4. In addition, in assay [2], the “Binding of serum 37 to linear peptides of protein X1 of SARS-CoV Urbani” value was determined as 0.6, the “Binding of serum 37 to looped/cyclic peptide (PEPSCAN-ELISA)” value came out at 0.6, the “Binding of serum 62 to linear peptides of protein X1 of SARS-CoV Urbani” value worked out at 0.6 and the “Binding of serum 62 to looped/cyclic peptide (PEPSCAN-ELISA)” value is listed as 0.8. For the same sequence, in assay [2], the “Binding of serum London to linear peptides of protein X1 of SARS-CoV Urbani” value stood at 0.3, the “Binding of serum London to looped/cyclic peptide (PEPSCAN-ELISA)” value is listed as 0.3, the “Binding of serum SARS-green to linear peptides of protein X1 of SARS-CoV Urbani” value was 0.2 and the “Binding of serum SARS-green to looped/cyclic peptide (PEPSCAN-ELISA)” value came out at 0.4. In addition, in assay [2], the “Binding of serum SARS-yellow to linear peptides of protein X1 of SARS-CoV Urbani” value was 0.5 and the “Binding of serum SARS-yellow to looped/cyclic peptide (PEPSCAN-ELISA)” value is on record as 0.6. In assay [3], the “Binding of a rabbit serum to linear peptides” value came out at 0.8 and the “Binding of a rabbit serum to looped peptides” value is reported as 0.6.

GYFTEVYYQLESTQI: in assay [1], the “Binding of Control Serum Blood-Bank to Looped peptides” value is 0.6, the “Binding of Control serum Blood-bank to linear peptides” value came to 0.4, the “Binding of Control serum LUMC to linear peptides” value came out at 0.4 and the “Binding of Control serum LUMC to looped peptides” value is given as 0.7. Besides, in assay [2], the “Binding of serum 1a to linear peptides of protein X1 of SARS-CoV Urbani” value is recorded as 0.7, the “Binding of serum 1a to looped/cyclic peptides of protein X1 of SARS-CoV Urbani” value came to 0.6, the “Binding of serum 1b to linear peptides of protein X1 of SARS-CoV Urbani” value turned out to be 0.5 and the “Binding of serum 1b to looped/cyclic peptides of protein X1 of SARS-CoV Urbani” value turned out to be 0.5. In assay [2], the “Binding of serum 2 to linear peptides of protein X1 of SARS-CoV Urbani” value is recorded as 0.5, the “Binding of serum 2 to looped/cyclic peptides of protein X1 of SARS-CoV Urbani” value was determined as 0.5, the “Binding of serum 6 to linear peptides of protein X1 of SARS-CoV Urbani” value is listed as 0.4 and the “Binding of serum 6 to looped/cyclic peptides of protein X1 of SARS-CoV Urbani” value came to 0.4. Moreover, in assay [2], the “Binding of serum 37 to linear peptides of protein X1 of SARS-CoV Urbani” value was 0.6, the “Binding of serum 37 to looped/cyclic peptides of protein X1 of SARS-CoV Urbani” value was found to be 0.6, the “Binding of serum 62 to linear peptides of protein X1 of SARS-CoV Urbani” value is given as 0.5 and the “Binding of serum 62 to looped/cyclic peptides of protein X1 of SARS-CoV Urbani” value came out at 0.6. For the same sequence, in assay [2], the “Binding of serum London to linear peptides of protein X1 of SARS-CoV Urbani” value worked out at 0.3, the “Binding of serum London to looped/cyclic peptides of protein X1 of SARS-CoV Urbani” value came out at 0.2, the “Binding of serum SARS-green to linear peptides of protein X1 of SARS-CoV Urbani” value is given as 0.3 and the “Binding of serum SARS-green to looped/cyclic peptides of protein X1 of SARS-CoV Urbani” value is reported as 0.4. In addition, in assay [2], the “Binding of serum SARS-yellow to linear peptides of protein X1 of SARS-CoV Urbani” value is recorded as 0.4 and the “Binding of serum SARS-yellow to looped/cyclic peptides of protein X1 of SARS-CoV Urbani” value is 0.4. For the same sequence, in assay [3], the “Binding of a rabbit serum to linear peptides” value is reported as 0.1 and the “Binding of a rabbit serum to looped peptides” value amounted to 0.5.

For HATATIPLQASLPFG, in assay [1], the “Binding of Control Serum Blood-Bank to Looped peptides” value is 0.7, the “Binding of Control serum Blood-bank to linear peptides” value stood at 0.8, the “Binding of Control serum LUMC to linear peptides” value stood at 0.6 and the “Binding of Control serum LUMC to looped peptides” value is recorded as 0.7. In addition, in assay [2], the “Binding of serum 1a to linear peptides of protein X1 of SARS-CoV Urbani” value stood at 0.9, the “Binding of serum 1a to looped/cyclic peptide (PEPSCAN-ELISA)” value came to 0.8, the “Binding of serum 1b to linear peptides of protein X1 of SARS-CoV Urbani” value stood at 0.8 and the “Binding of serum 1b to looped/cyclic peptide (PEPSCAN-ELISA)” value was determined as 0.6. In assay [2], the “Binding of serum 2 to linear peptides of protein X1 of SARS-CoV Urbani” value stood at 0.6, the “Binding of serum 2 to looped/cyclic peptide (PEPSCAN-ELISA)” value came to 0.5, the “Binding of serum 6 to linear peptides of protein X1 of SARS-CoV Urbani” value worked out at 0.6 and the “Binding of serum 6 to looped/cyclic peptide (PEPSCAN-ELISA)” value stood at 0.5. In assay [2], the “Binding of serum 37 to linear peptides of protein X1 of SARS-CoV Urbani” value turned out to be 0.8, the “Binding of serum 37 to looped/cyclic peptide (PEPSCAN-ELISA)” value amounted to 0.6, the “Binding of serum 62 to linear peptides of protein X1 of SARS-CoV Urbani” value is given as 0.7 and the “Binding of serum 62 to looped/cyclic peptide (PEPSCAN-ELISA)” value was 0.6. Further, in assay [2], the “Binding of serum London to linear peptides of protein X1 of SARS-CoV Urbani” value is given as 0.3, the “Binding of serum London to looped/cyclic peptide (PEPSCAN-ELISA)” value is recorded as 0.2, the “Binding of serum SARS-green to linear peptides of protein X1 of SARS-CoV Urbani” value is reported as 0.2 and the “Binding of serum SARS-green to looped/cyclic peptide (PEPSCAN-ELISA)” value is reported as 0.4. Moreover, in assay [2], the “Binding of serum SARS-yellow to linear peptides of protein X1 of SARS-CoV Urbani” value was 0.4 and the “Binding of serum SARS-yellow to looped/cyclic peptide (PEPSCAN-ELISA)” value stood at 0.4. In assay [3], the “Binding of a rabbit serum to linear peptides” value is on record as 0.1 and the “Binding of a rabbit serum to looped peptides” value is 0.5.

For the sequence HFAFACADGTRHTYQ, in assay [1], the “Binding of Control Serum Blood-Bank to Looped peptides” value was 0.8, the “Binding of Control serum Blood-bank to linear peptides” value is on record as 0.6, the “Binding of Control serum LUMC to linear peptides” value is 0.7 and the “Binding of Control serum LUMC to looped peptides” value is 0.7. Besides, in assay [2], the “Binding of serum 1a to linear peptides of protein X4 of SARS-CoV Urbani” value turned out to be 0.7, the “Binding of serum 1a to looped/cyclic peptides of protein X4 of SARS-CoV Urbani” value was 0.6, the “Binding of serum 1b to linear peptides of protein X4 of SARS-CoV Urbani” value turned out to be 0.5 and the “Binding of serum 1b to looped/cyclic peptides of protein X4 of SARS-CoV Urbani” value came to 0.5. In assay [2], the “Binding of serum 2 to linear peptides of protein X4 of SARS-CoV Urbani” value amounted to 0.4, the “Binding of serum 2 to looped/cyclic peptides of protein X4 of SARS-CoV Urbani” value worked out at 0.6, the “Binding of serum 6 to linear peptides of protein X4 of SARS-CoV Urbani” value is given as 0.6 and the “Binding of serum 6 to looped/cyclic peptides of protein X4 of SARS-CoV Urbani” value is recorded as 0.6. Also, in assay [2], the “Binding of serum 37 to linear peptides of protein X4 of SARS-CoV Urbani” value is on record as 0.6, the “Binding of serum 37 to looped/cyclic peptides of protein X4 of SARS-CoV Urbani” value is reported as 0.6, the “Binding of serum 62 to linear peptides of protein X4 of SARS-CoV Urbani” value came out at 0.6 and the “Binding of serum 62 to looped/cyclic peptides of protein X4 of SARS-CoV Urbani” value is reported as 0.5. In addition, in assay [2], the “Binding of serum London to linear peptides of protein X4 of SARS-CoV Urbani” value worked out at 0.6, the “Binding of serum London to looped/cyclic peptides of protein X4 of SARS-CoV Urbani” value was found to be 0.2, the “Binding of serum SARS-green to linear peptides of protein X4 of SARS-CoV Urbani” value was 0.6 and the “Binding of serum SARS-green to looped/cyclic peptides of protein X4 of SARS-CoV Urbani” value stood at 0.2. For the same sequence, in assay [2], the “Binding of serum SARS-yellow to linear peptides of protein X4 of SARS-CoV Urbani” value is reported as 0.1 and the “Binding of serum SARS-yellow to looped/cyclic peptides of protein X4 of SARS-CoV Urbani” value came to 0.4. In assay [3], the “Rabbit serum linear peptides” value is 0.4 and the “Rabbit serum looped peptides” value stood at 0.1.
